Among the data in publication PMC10958880, “Pocket Crafter: a 3D generative modeling based workflow for the rapid generation of hit molecules in drug discovery” (Journal of Cheminformatics, 2024) are IC50 values, retold here.

Type in all cases: binding
In experiment [1] the target is T1, WDR5 (Homo sapiens, UniProt P61964). The experiment is described as follows: DSF (Tm shift -4.[…] °C) plus WDR5-MYC peptide HTRF displacement with counter assay. Further details: full-length WDR5 (DSF); N-His, 1–334 (HTRF). (TR-FRET usually uses a lanthanide donor and a delayed reading to cut background.)
The target in experiment [2] is T1, WDR5. The experiment can be described thus: WDR5-MYC peptide HTRF dose response, inactive in counter assay. Further details: N-His, 1–334; with MYC MbIIIb peptide (256–268 a.a.).
Experiment [3] deals with T1, WDR5. The experiment can be described thus: DSF (Tm shift -1.[…] °C) plus WDR5-MYC peptide HTRF displacement with counter assay. The arrangement: full-length WDR5 (DSF); N-His, 1–334 (HTRF).

For `O=C(c1cc2ccccc2[nH]1)N1CCn2ncc(N3C[C@@H](CO)OC3=O)c2C1` [PC-1], at WDR5 [1], the IC50 (usually the concentration at which inhibition is half-maximal) stood at 35.6 µM.
For `CC1(C)CN(c2cnn3c2CN(C(=O)c2cc4c([nH]2)CCCC4)CC3)C(=O)O1` [PC-3], on WDR5 [2], half-maximal inhibition (IC50) required 28.5 µM.
Turning to `C[C@H]1Cc2noc(N3CCCCC3=O)c2CN1C(=O)c1cc2ccccc2[nH]1` [PC-2], the IC50 at WDR5 [3] was found to be 27.5 µM.
